Several values for one entry are separate records, joined by “and”; a condition that tells them apart may be missing. Equal values may be shown once.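 Protocol summary: plate cells (96-well), add compound at 5 concentrations, incubate 48 h, interpolate endpoints linearly. At the GI50, growth is halved. At the TGI there is no net growth.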 A value given as a limit tells only on which side of the number the result lay.

One assay concerns DU-145 prostate. Description: inhibition of tumour cell growth, NCI panel, 48 h.
Take `O=c1[nH]cc(N=Cc2cc(Cl)cc(Cl)c2O)c(=O)[nH]1`: the TGI is 60.4 µM.
For `Cc1c2cnccc2c(C)c2c1c1ccccc1n2CCCN`, the TGI came to 0.798 µM.
In the case of `O=C(NNC(=O)c1ccccc1SSc1ccccc1C(=O)NNC(=O)c1ccccc1S)c1ccccc1S`, the TGI is greater than 54.7 µM.
In the case of `Cc1ccccc1-n1c(=O)c2ncn(CCCl)c2n(-c2ccccc2C)c1=S`, the TGI is greater than 100 µM.
As for `CC1(C)N=C(/C(Cl)=[N+](/[O-])C(=O)c2ccc(F)cc2)C(C)(C)N1O`, the TGI amounted to 78.7 µM.
The compound `C(/c1ccco1)=c1/nc(-c2ccccc2)n2c1nc1ccccc12` registered a TGI greater than 100 µM.
Take `COc1cc2c(cc1OC)C(c1ccccc1CCCCl)=NCC2`: the TGI is greater than 100 µM.
On the same count and under the same terms, to `Clc1cc(OC2C3CC4CC(C3)CC2C4)nc(Cl)n1` (centres undefined) belongs 39.9 µM; to `Cc1ccc(SCC(CSCCO)OCn2cnc3c2NC(N)=NC32OCCO2)cc1` (centres undefined), greater than 100 µM; to `Cc1cccc(/C=N/NC(=S)Nc2ccccc2)n1`, greater than 67.7 µM.
The same measure, in the same setting: to `CC(C)c1ccc(/C=C2/C=C(c3ccc4ccccc4c3)OC2=O)cc1` belongs greater than 100 µM; to `COc1cc(/C=C/C(=N\NS(=O)(=O)c2ccc(C)cc2)c2sc(NNC(C)=O)nc2C)ccc1O`, greater than 100 µM.
The same measure, in the same setting: to `COc1ccc(/C=C2\CCC(C)C3=C2NC(=S)NC3c2ccc(OC)c(OC)c2)cc1OC` (centres undefined) belongs greater than 31.6 µM; to `NC(=O)C(c1ccccc1)N1OC2C(=O)N(c3ccccc3)C(=O)C2C1c1c2ccccc2c(Cl)c2ccccc12` (centres undefined), greater than 100 µM.
The compound `CNC(=O)OCC1=C(COC(=O)NC)C(C)N(c2ccc(OC)cc2)C1` (centres undefined) registered a TGI greater than 100 µM.
Compound `N#CC1=C(N)N(c2ccccc2)C(c2ccco2)C1(C#N)C#N` (centres undefined) yielded a TGI of 37.4 µM.
The same measure, in the same setting: under `N=c1n(C(=O)N2CCCC2)c2cc(Cl)ccc2n1C1=NCCN1` stands greater than 100 µM.
Still for that read-out and setting: to `O=C(O)CN(CC(=O)O)C1CCCCC1N(CC(=O)O)CC(=O)NCCN=C=S` (centres undefined) belongs greater than 100 µM.

The next assay has as its system HOP-62 NSCLC. Description: inhibition of tumour cell growth, NCI panel, 48 h.
With `C[C@@]12C[C@@H](c3ccccc3O1)N1CCCCSC1=N2`, the TGI was greater than 100 µM.
Take `COc1ccc(N2C(=O)C3c4[nH]c5ccccc5c4C4CCC(C(C)(C)C)CC4C3C2=O)c(C)c1` (centres undefined): the TGI was greater than 100 µM.
`C=C1c2nc3ccccc3n2C=C(c2ccccc2)N1c1ccc([N+](=O)[O-])cc1` registered a TGI greater than 52.6 µM.
The compound `O=c1[nH]cc(N=Cc2cc(Cl)cc(Cl)c2O)c(=O)[nH]1` gave a TGI of 57 µM.
Turning to `Cc1c2cnccc2c(C)c2c1c1ccccc1n2CCCN`, the GI50 is 0.0687 µM; the TGI was 1.52 µM and 0.597 µM.
As for `O=C(NNC(=O)c1ccccc1SSc1ccccc1C(=O)NNC(=O)c1ccccc1S)c1ccccc1S`, the TGI was greater than 100 µM.
As to `Cc1ccccc1-n1c(=O)c2ncn(CCCl)c2n(-c2ccccc2C)c1=S`, the TGI was greater than 100 µM.
Same read-out and setting: under `CC1(C)N=C(/C(Cl)=[N+](/[O-])C(=O)c2ccc(F)cc2)C(C)(C)N1O` stands 40 µM; under `C(/c1ccco1)=c1/nc(-c2ccccc2)n2c1nc1ccccc12`, greater than 100 µM; under `COc1cc2c(cc1OC)C(c1ccccc1CCCCl)=NCC2`, greater than 100 µM.
Consider `Clc1cc(OC2C3CC4CC(C3)CC2C4)nc(Cl)n1` (centres undefined), for which the TGI is 67.1 µM.
On to `Cc1ccc(SCC(CSCCO)OCn2cnc3c2NC(N)=NC32OCCO2)cc1` (centres undefined), for which the TGI was greater than 100 µM.
Compound `Cc1cccc(/C=N/NC(=S)Nc2ccccc2)n1` showed a TGI of 17.8 µM.
For the compound `CC(C)c1ccc(/C=C2/C=C(c3ccc4ccccc4c3)OC2=O)cc1`, the TGI was greater than 100 µM.
`COc1cc(/C=C/C(=N\NS(=O)(=O)c2ccc(C)cc2)c2sc(NNC(C)=O)nc2C)ccc1O` showed a TGI greater than 100 µM.
As to `COc1ccc(/C=C2\CCC(C)C3=C2NC(=S)NC3c2ccc(OC)c(OC)c2)cc1OC` (centres undefined), the TGI is greater than 100 µM.
On the same count and under the same terms, to `NC(=O)C(c1ccccc1)N1OC2C(=O)N(c3ccccc3)C(=O)C2C1c1c2ccccc2c(Cl)c2ccccc12` (centres undefined) belongs greater than 100 µM; to `CNC(=O)OCC1=C(COC(=O)NC)C(C)N(c2ccc(OC)cc2)C1` (centres undefined), greater than 100 µM.
Same read-out and setting: to `N#CC1=C(N)N(c2ccccc2)C(c2ccco2)C1(C#N)C#N` (centres undefined) belongs 54.3 µM.
`N=c1n(C(=O)N2CCCC2)c2cc(Cl)ccc2n1C1=NCCN1` yielded a TGI greater than 100 µM.
With `O=C(O)CN(CC(=O)O)C1CCCCC1N(CC(=O)O)CC(=O)NCCN=C=S` (centres undefined), the TGI was greater than 100 µM.

The test system of the next assay is T-47D breast. Description: inhibition of tumour cell growth, NCI panel, 48 h.
`C[C@@]12C[C@@H](c3ccccc3O1)N1CCCCSC1=N2`: the TGI was greater than 100 µM.
The same measure, in the same setting: to `COc1ccc(N2C(=O)C3c4[nH]c5ccccc5c4C4CCC(C(C)(C)C)CC4C3C2=O)c(C)c1` (centres undefined) belongs greater than 100 µM.
Compound `C=C1c2nc3ccccc3n2C=C(c2ccccc2)N1c1ccc([N+](=O)[O-])cc1` yielded a TGI greater than 53.5 µM.
Turning to `O=c1[nH]cc(N=Cc2cc(Cl)cc(Cl)c2O)c(=O)[nH]1`, the TGI was found to be 66.2 µM.
`Cc1c2cnccc2c(C)c2c1c1ccccc1n2CCCN` had a TGI of 2.03 µM.
As for `O=C(NNC(=O)c1ccccc1SSc1ccccc1C(=O)NNC(=O)c1ccccc1S)c1ccccc1S`, the TGI is greater than 27.8 µM.
In the case of `Cc1ccccc1-n1c(=O)c2ncn(CCCl)c2n(-c2ccccc2C)c1=S`, the TGI was greater than 100 µM.
`CC1(C)N=C(/C(Cl)=[N+](/[O-])C(=O)c2ccc(F)cc2)C(C)(C)N1O` returned a TGI of 58.5 µM.
Still for that read-out and setting: to `C(/c1ccco1)=c1/nc(-c2ccccc2)n2c1nc1ccccc12` belongs greater than 100 µM; to `COc1cc2c(cc1OC)C(c1ccccc1CCCCl)=NCC2`, greater than 100 µM.
On the same count and under the same terms, to `Clc1cc(OC2C3CC4CC(C3)CC2C4)nc(Cl)n1` (centres undefined) belongs 53.4 µM; to `Cc1ccc(SCC(CSCCO)OCn2cnc3c2NC(N)=NC32OCCO2)cc1` (centres undefined), greater than 100 µM; to `Cc1cccc(/C=N/NC(=S)Nc2ccccc2)n1`, greater than 29.2 µM.
`CC(C)c1ccc(/C=C2/C=C(c3ccc4ccccc4c3)OC2=O)cc1` had a TGI greater than 100 µM.
Compound `COc1cc(/C=C/C(=N\NS(=O)(=O)c2ccc(C)cc2)c2sc(NNC(C)=O)nc2C)ccc1O` came in with a TGI greater than 100 µM.
For the compound `COc1ccc(/C=C2\CCC(C)C3=C2NC(=S)NC3c2ccc(OC)c(OC)c2)cc1OC` (centres undefined), the TGI was greater than 27.4 µM.
Same read-out and setting: under `NC(=O)C(c1ccccc1)N1OC2C(=O)N(c3ccccc3)C(=O)C2C1c1c2ccccc2c(Cl)c2ccccc12` (centres undefined) stands greater than 100 µM; under `CNC(=O)OCC1=C(COC(=O)NC)C(C)N(c2ccc(OC)cc2)C1` (centres undefined), greater than 100 µM.
Same read-out and setting: to `N#CC1=C(N)N(c2ccccc2)C(c2ccco2)C1(C#N)C#N` (centres undefined) belongs 81 µM; to `N=c1n(C(=O)N2CCCC2)c2cc(Cl)ccc2n1C1=NCCN1`, 98.2 µM.
Still for that read-out and setting: under `O=C(O)CN(CC(=O)O)C1CCCCC1N(CC(=O)O)CC(=O)NCCN=C=S` (centres undefined) stands greater than 100 µM.

The next assay has as its system SF-539 CNS. Briefly: inhibition of tumour cell growth, NCI panel, 48 h.
`C[C@@]12C[C@@H](c3ccccc3O1)N1CCCCSC1=N2` registered a TGI greater than 100 µM.
The compound `COc1ccc(N2C(=O)C3c4[nH]c5ccccc5c4C4CCC(C(C)(C)C)CC4C3C2=O)c(C)c1` (centres undefined) showed a TGI greater than 100 µM.
On the same count and under the same terms, under `C=C1c2nc3ccccc3n2C=C(c2ccccc2)N1c1ccc([N+](=O)[O-])cc1` stands 3.04 µM.
The same measure, in the same setting: under `O=c1[nH]cc(N=Cc2cc(Cl)cc(Cl)c2O)c(=O)[nH]1` stands 43.6 µM.
Regarding `Cc1c2cnccc2c(C)c2c1c1ccccc1n2CCCN`, the GI50 is 0.317 µM and the TGI stood at 1.35 µM.
Compound `O=C(NNC(=O)c1ccccc1SSc1ccccc1C(=O)NNC(=O)c1ccccc1S)c1ccccc1S` yielded a TGI greater than 53.9 µM.
As for `Cc1ccccc1-n1c(=O)c2ncn(CCCl)c2n(-c2ccccc2C)c1=S`, the TGI was greater than 100 µM.

The values are drawn from PubChem BioAssay (NCI).
